Assay results as given in EP4813991A1 (iLeadBMS Co., Ltd., priority 2023, dated 2025).

What was measured:
HCT15 = assay: Colorectal cancer cell proliferation inhibitory activity, HCT15; assay type: cell-based; conditions: Homo sapiens, HCT-15; 72 hours, Cell Counting Kit-8, relative IC50
Method: (§1) Experiments were performed using seven types of colorectal cancer cell lines to measure the cell proliferation inhibitory ability of each Example compound. DLD-1, LoVo, SW620, SW480, HCT116, HCT15, and HT29 cells were dispensed into a 96-well plate at 100 µL of cell suspension per well using RPMI1640 medium containing 10 % FBS and 1 % PS, followed by incubation in a cell incubator at 37 °C and 5 % CO2. The next day, each Example compound dissolved and diluted in DMSO across 10 concentration ranges and a DMSO control group were treated on the cells for 72 hours. After completion of the compound treatment, 10 µL of Cell Counting Kit-8 (Dojindo) reagent was added to each well of the 96-well plate, followed by incubation for 2 hours. […] were measured after inserting the 96-well plate into an Envision plate reader […]. Relative IC50 values were calculated by fitting a dose-response curve using Graphpad PRISM software.
(§2) The colorectal cancer cell proliferation inhibitory activities of the Example compounds measured by the method described above were evaluated according to the following criteria, and the results are presented in Table 19.

Cyclin K = assay: Analysis of Cyclin K degradation ability in MKN45 gastric cancer cells (western blot); assay type: cell-based; conditions: 8 hours or 24 hours, compared to the negative control group (DMSO), FIGs. 4 and 5
Method: In order to confirm the Cyclin K degradation ability of the Example compounds, HCC70 breast cancer cells and MKN45 gastric cancer cells were cultured in RPMI-1640 medium supplemented with 10 % FBS, and then the cells were collected to prepare cell suspensions. The HCC70 breast cancer cell suspension was dispensed at a cell number of 2.0 X 10^6 per 6-well and cultured in a 5 % CO2 cell incubator at 37 °C for 24 hours, and the MKN45 gastric cancer cell suspension was dispensed at a cell number of 5.0 X 10^6 per 6-well and cultured in a 5 % CO2 cell incubator at 37 °C for 24 hours. The next day, each Example compound dissolved and diluted in DMSO across 4 to 5 concentration ranges and a negative control group (DMSO-treated group) were added to the 6-wells, and the HCC70 breast cancer cells were treated for 8 hours while the MKN45 gastric cancer cells were treated with the compounds for 8 hours or 24 hours. After completion of the compound treatment, the medium was removed, each cell was washed with PBS, and then 100 µL of RIPA buffer for cell lysis was added to each 6-well to collect cell lysates. The protein concentration of the cell lysates was quantified by the […], and loading buffer was added to adjust the protein concentration to 30 µg, followed by reaction at 85 °C for 10 minutes, centrifugation, and standing at room temperature. […]

AGS gastric cancer cells = assay: Zebrafish xenograft gastric cancer model (AGS); assay type: in vivo
Method: Transgenic Tg(fli1:EGFP)y1 zebrafish embryos were cultured in E3 embryo medium with 0.2 mM 1-phenyl-2-thiourea (PTU) at 28 °C for 48 hours. HCC70 breast cancer cells were cultured using RPMI-1640 medium supplemented with 10 % FBS, and AGS gastric cancer cells were cultured using F-12K medium supplemented with 10 % FBS. Each cell was collected, labeled with Dil red fluorescent dye, and then subcutaneously transplanted into 2-day-old zebrafish embryos. After selecting embryos with tumors, they were classified into experimental groups (20 embryos per group), and each Example compound dissolved and diluted in DMSO across 2 to 3 concentration ranges, a DMSO control group, or a comparative compound were added, followed by incubation at 35.5 °C for 48 hours or 72 hours. In the breast cancer model, primary tumors were collected immediately after transplantation (Day 0) and after 48 hours (Day 2), and in the gastric cancer model, primary tumors were obtained immediately after transplantation (Day 0) and after 72 hours (Day 3). Images of the collected tumors were analyzed for reduction in tumor size compared to the DMSO control group using image software, and the number of disseminated cancer cells after 3 days was manually counted through the captured images, with the results shown in FIGs. 6, 7, and 8. […]

AGS cells = assay: Gastric cancer cell proliferation inhibitory activity (Cell Counting Kit-8), AGS; assay type: cell-based; conditions: Homo sapiens, 72 hours, Cell Counting Kit-8, relative IC50
Method: as §1, with “six” for “seven”, “gastric” for “colorectal”, “NCI-N87, SNU601, KATO-III, MKN1,” for “DLD-1, LoVo, SW620, SW480, HCT116, HCT15,”, “AGS” for “HT29”, “RPMI1640 medium containing 10 % FBS and 1 % PS, followed by incubation in a cell incubator at 37 °C and 5 % CO2. HS746T cells were dispensed into a 96-well plate at 100 µL of cell suspension per well using DMEM” for “RPMI1640”
The gastric cancer cell proliferation inhibitory activities of the Example compounds measured by the method described above were evaluated according to the following criteria, and the results are presented in Table 20.

SW480 = assay: Colorectal cancer cell proliferation inhibitory activity, SW480; assay type: cell-based; conditions: Homo sapiens, 72 hours, Cell Counting Kit-8, relative IC50
Method: as §1, §2

Compound	IC50 (HCT15) [nM]	Cyclin K degradation ability (Cyclin K)	number of metastatic gastric cancer cells (AGS gastric cancer cells; 0.1 µM, compared to 1 mM of 5-FU, FIG. 8)	reduction in tumor size (AGS gastric cancer cells; 72 hours, compared to the vehicle, FIG. 7)	IC50 (AGS cells) [nM]	IC50 (SW480) [nM]
CN1CCN(c2cc(NCc3nc4ccc(F)c(F)c4[nH]3)c3ncc(C(F)(F)F)n3n2)CC1 [Example 8, N-((6,7-difluoro-1H-benzo[d]imidazol-2-yl)methyl)-6-(4-methylpiperazin-1-yl)-3-(trifluoromethyl)imidazo[1,2-b]pyridazin-8-amine]	≤ 200	strongly degrade Cyclin K	significant reduction in the number of metastatic gastric cancer cells	dose-dependent reduction in tumor size	≤ 200	≤ 200
Nc1ncc(-c2cc(NCc3nc4cc(Cl)c(Cl)cc4[nH]3)c3ncc(C(F)(F)F)n3n2)cn1 [Example 40]	≤ 200	strongly degrade Cyclin K	–	–	≤ 200	≤ 200
